Results reported in patent publication US11660319B2, “Compositions comprising bacterial strains” (priority 2017, dated 2023).

Columns and labels:
[1] = tested on: histone deacetylase; experiment: Histone deacetylase activity in HT-29 cells (fluorometric kit); format: cell-based; conditions: 10% cell free supernatant, 48 hours
Procedure: Cell free supernatants of stationary phase bacterial cultures were isolated by centrifugation and filtering in a 0.22 uM filter. HT-29 cells were used 3 days' post confluence and stepped down in 1 mL DTS 24 hours prior to commencement of the experiment. The HT-29 cells were challenged with 10% cell free supernatant diluted in DTS and this was left to incubate for 48 hours. […] extraction kit and samples were snap frozen prior to HDAC activity measurement. HDAC activity kit was assessed fluorometrically using the Sigma Aldrich (UK) kit.

[2] = tested on: HT29-mtx epithelial, mucin-producing cell monolayers; experiment: IL-8 secretion of HT29-mtx monolayers; format: cell-based; conditions: bacterial supernatants 24 h; compared to untreated and YCFA-treated cells
Source text: HT29-mtx epithelial, mucin-producing cell monolayers were used as an in vitro model to evaluate gut barrier disruption and immune stimulation following treatment with MRx0005 and MRx0029.

[3] = tested on: SH-SY5Y neuroblastoma cells; experiment: Neuroprotection / cell viability of neuroblastoma cells treated with MPP (CCK-8); format: cell-based, human
Procedure: Once grown the SH-SY5Y neuroblastoma cells were plated on 96-well plate at 11,000 cells/well and incubated for 2 days. The cells were then transferred to differentiation medium (which contains FBS at 1%) and 10 uM retinoic acid (Sigma Aldrich, cat. n. R2625-100MG). Differentiation medium was replaced every other day and cells were harvested at 7 day of differentiation. Cells were pre-treated with or without MPP (Sigma Aldrich, cat. n. D048-1G) for 8 hours. Subsequently, cells were treated with 10% bacterial supernatant and incubated overnight. Cell viability was measured by using CCK-8 reagent (Sigma Aldrich, Cell Counting Kit-8, cat. n. 96992-3000TESTS-F) and read at 450 nm wavelength.

[4] = tested on: SHSY5Y; experiment: Neurite outgrowth: microscopy and MAP2 gene expression (qPCR); format: cell-based, human
Procedure: SHSY5Y were plated in 10 cm petri dishes a density of 2×10^6 cells. After 24 h cells were treated in differentiation medium (growth medium containing 1% FBS without RA) with 10% bacteria supernatants or YCFA+, 10 uM RA, 200 uM hexanoic acid or 200 uM valproic acid, for 17 hrs. There after representative images were taken using phase contrast EVOS XL core microscope at 40×/0.65 magnification. Cells were collected, and total RNA was isolated according to RNeasy mini kit protocol (Qiagen). cDNAs were made using the high capacity cDNA reverse transcription kit (Applied Biosystems). Gene expression was measured using qPCR. GAPDH was used as internal control. Fold change was calculated according to the 2^(−ΔΔct) method.
Cells were seeded onto 8 well chamber slides (Marienfeld Laboratory Glassware) at 5×10^4 cells/well overnight and were treated with 10% bacterial supernatant for 24 hrs. For differentiation, cells were treated with 10 nM Retinoic acid for 5 days before treating with bacterial supernatant. Cells were then fixed with 4% paraformaldehyde in PBS for 20 minutes at room temperature (RT). Fixed cells were washed with PBS, and permeabilized with 1% Triton X-100 in PBS for 10 minutes. After washing with PBS, the slides were incubated with blocking buffer (4% BSA/PBS) for 1 hr at RT before adding anti-MAP2 antibody (sc-74421, Santa Cruz Biotechnology Inc) diluted in 1% BSA/PBS for 12 hr at 4° C. They were then washed twice with PBS, followed by incubation with Alexa Flour 488 conjugated anti-mouse (Molecular Probes Inc) and Alexa Flour 594 conjugated Phalloidin (ab 176757, Abcam) for 1 hr at RT. After washing 3× with PBS, the slides were mounted with Vectorshield[…] containing DAPI (Sigma, Aldrich). Slides were viewed using a Zeiss Axioscope microscope equipped with a 63×/1.2 W Korr objective and filter sets suitable for detection of the fluorochromes used. Manual exposure times for the digital acquisition of images immuno-labelled with MAP-2 were kept constant allowing comparison between different wells and treatments. Phalloidin (F-actin) and DAPI exposure times varied to suit the field of view. Randomised fields of view were acquired using a QImaging camera controlled by Image Pro Plus software. Images were saved as TIFs and opened in Adobe Photoshop CC 2015.1.2 and overlays of the MAP-2, DAPI and Phalloidion images overlaid and merged. Representative images were selected to illustrate the differences in abundance and location of the proteins examined

[5] = tested on: U373 astroglioblastoma cells; experiment: ROS generated by TBHP (DCFDA fluorescence); format: cell-based, human; conditions: 10% bacteria supernatant
[6] = tested on: co-culture of human glioblastoma astrocytoma cells and neuroblastoma cells; experiment: α-synuclein-induced IL-6 secretion in co-culture; format: cell-based; conditions: 25 μg/ml α-synuclein (Wt, A53T, E46K), 10% bacteria supernatant, 48 hrs
Procedure: SHSY5Y cells were plated on 12 well plates at a density of 50,000 cells/well. The cells were grown in 50% MEM and 50% Nutrient Mixture F-12 Ham media supplemented with 2 mM L-Glutamine, 10% heat inactivated FBS, 100 U/ml penicillin, 100 μg/ml streptomycin. Cells on growth medium were plated on 96-well plate at 11,000 cells/well and placed in the incubator. After 2 days, media were replaced with differentiation medium (growth medium containing 1% FBS) and 10 μM retinoic acid. Differentiation medium was replaced every other day and cells were used after 7 days of differentiation. U373 were plated on 12 transwell plates (0.4 μm polyester membrane, Costar) at a density of 50,000 cells/well for 72 hrs. Cells were co-cultured together for 24 hrs before treatment in differentiation medium (growth medium containing 1% FBS without retinoic acid).
Thereafter cells were treated with 25 μg/ml α-synuclein (Wt, A53T, E46K) in the presence or absence of 10% bacteria supernatant for 48 hrs. Cell free Supernatants were collected, spun-down at 10000 g for 3 min at 4° C., aliquoted and stored at −80° C. Human IL-6 and IL-8 were measured as described above.

Megasphaera massiliensis [MRx0029]
levels of histone deacetylase activity [1]: reduce
secretion of IL-8 [2]: even lower secretion
proliferation of neurons ([3]; 10% bacterial supernatant, without MPP): increase
cell viability of cells treated with MPP ([3]; MPP pre-treatment 8 hours, then 10% bacterial supernatant overnight, compared to MPP alone): rescued viability more than the positive control
protection from MPP+ (cell viability) ([3]; RA-differentiated SHSY-5Y cells treated with MPP+): complete protection
mitochondria metabolic activity ([3]; RA-differentiated SHSY-5Y cells, per se (no MPP+)): increase
neurite outgrowth / neuron-like phenotype ([4]; undifferentiated SHSY-5Y cells, 10% bacteria supernatant, 200 uM hexanoic acid or 200 uM valproic acid, 17 hrs): induced a neuron-like phenotype
MAP2 expression ([4]; undifferentiated neuroblastoma cells, qPCR, GAPDH internal control): significantly upregulates
generation of ROS [5]: did not have an effect
α-syn-induced secretion of IL-6 [6]: greatest
